Results on seven compounds are retold here after patent publication US6492303B1, “Compositions for protecting a plant from a disease and using method thereof” (priority 1998, dated 2002).

The subject of assay [1] is rice plant “Nihonbare”. The assay is described as follows: Test 11: production of Sakuranetin and Momilactone-A in wounded rice blades treated with L-cysteine/D-glucose and comparative solutions. The note with it: rice fifth blades, 25 μl test solution on 1 mm cuts, 60 hours at 25° C. under light.
Assay [2] concerns various pathogenic bacteria of plants including Pyricularia oryzae. As to conditions: antibacterial activity; stated as known, no test described; cited from earlier work.
Assay [3] deals with Carrot. As to conditions: 500 ml per stock sprayed on foliage, aboveground part 72 hours after spraying; Non-treating Section = 100.
Method: (§1) Above plants in the age of 5-6 blades were employed for the test. […] The application for MG3 and M1 was executed in the form of spraying on the foliage by 500 ml per stock. The analysis of phytoalexins were carried out by sampling the aboveground part of plants 72 hours after the spraying, extracting the samples with acetone followed by chromatographic elution with ethyl acetate through a silica gel, and finally analyzing on an HPLC instrument.
The test system of assay [4] is rice blight (Pyricularia oryzae). Type of assay: in vivo. As to conditions: rice “Nihonbare”, 100 ml sprayed on foliage 24 hours before inoculation, measured ten days after inoculation; Control Section 25.1.
Assay [5] has as its system Tobacco. The note with it: 500 ml per stock sprayed on foliage, aboveground part 72 hours after spraying; Non-treating Section = 100.
Method: as §1
Assay [6] concerns Potato. As to conditions: 500 ml per stock sprayed on foliage, aboveground part 72 hours after spraying; Non-treating Section = 100.
Method: as §1
For assay [7], the system named is Tomato. The note with it: 500 ml per stock sprayed on foliage, aboveground part 72 hours after spraying; Non-treating Section = 100.
Method: as §1
Assay [8] concerns Soybean. As to conditions: 500 ml per stock sprayed on foliage, aboveground part 72 hours after spraying; Non-treating Section = 100.
Method: as §1
Assay [9] concerns Grape. As to conditions: 500 ml per stock sprayed on foliage, aboveground part 72 hours after spraying; Non-treating Section = 100.
Method: as §1
The subject of assay [10] is Podded pea. The note with it: 500 ml per stock sprayed on foliage, aboveground part 72 hours after spraying; Non-treating Section = 100.
Method: as §1
Assay [11] deals with Beat. As to conditions: 500 ml per stock sprayed on foliage, aboveground part 72 hours after spraying; Non-treating Section = 100.
Method: as §1
Assay [12] has as its system rice plant “Nihonbare”. The assay can be described thus: Test 1: production of Sakuranetin and Momilactone-A in wounded rice blades treated with DL-methionine/D-glucose solutions. In kind it is in vivo. The note with it: rice fifth blades, 25 μl test solution on 1 mm cuts, 60 hours at 25° C. under light; detected amount per cut. On the procedure: The structural formula of Sakuranetin is shown in Formula 1, and of Momilactone-A in Formula 2. [drawing 1]
A control section was set up similarly except using 25 μl of distilled water only.
Unit: ng/spot (detected amount per cut)

The test system of assay [13] is Chinese cabbage. The note with it: 500 ml per stock sprayed on foliage, aboveground part 72 hours after spraying; Non-treating Section = 100.
Method: as §1
Assay [14] relates to Eggplant. As to conditions: 500 ml per stock sprayed on foliage, aboveground part 72 hours after spraying; Non-treating Section = 100.
Method: as §1

`N[C@@H](CS)C(=O)O` [Section C1, L-cysteine]: in [1], the “Amount of Momilactone-A” value came to 38.99 ng/spot and the “Amount of Sakuranetin” value amounted to 79.10 ng/spot.

Consider `COc1cc(O)c2c(c1)O[C@H](c1ccc(O)cc1)CC2=O` [Sakuranetin], for which, in assay [2], the ED50 is recorded as 15 ppm.

On to `N[C@@H](CCC(=O)N[C@@H](CS)C(=O)NCC(=O)O)C(=O)O` [Section GT1, Glutathione of reduced type], for which, in assay [1], the “Amount of Momilactone-A” value was “not detected” and the “Amount of Sakuranetin” value is recorded as “not detected”.

As for `N.N.O=S(=O)(O)O` [Section AS1, Ammonium sulfate], in assay [1], the “Amount of Momilactone-A” value is reported as “not detected” and the “Amount of Sakuranetin” value is recorded as “not detected”.

With `C=C[C@]1(C)CC[C@@H]2C(=C[C@H]3OC(=O)[C@@]4(C)C(=O)CC[C@@]2(C)[C@@H]34)C1` [Momilactone-A], the ED50 in assay [2] is recorded as 15 ppm.

Turning to `O=C[C@H](O)[C@@H](O)[C@H](O)[C@H](O)CO` [Section GL1, D-glucose], in [1], the “Amount of Momilactone-A” value was “not detected” and the “Amount of Sakuranetin” value was “not detected”.

As for `CSCCC(N)C(=O)O` (racemic) [Section M1, DL-methionine], the “6-Methoxymelain (Carrot), produced amount per unit weight” value in [3] was 3,222. Also, the “Necrosis Ratio = (necrosis area + decay area)/total area” value in assay [4] came to 7.8%. The “Capsydiol (Tobacco), produced amount per unit weight” value in assay [5] is recorded as 1,907. Also, in [6], the “Ricitin (Potato), produced amount per unit weight” value came out at 590. For the same compound, the “Ricitin (Tomato), produced amount per unit weight” value in assay [7] is on record as 10,039. Further, the “Griceorin (Soybean), produced amount per unit weight” value in assay [8] is 1,910. Also, in assay [9], the “α-Vinipherin (Grape), produced amount per unit weight” value turned out to be 962. For the same compound, in assay [10], the “Pisatin (Podded pea), produced amount per unit weight” value was 4,522. In addition, in assay [11], the “Vetablugarin (Beat), produced amount per unit weight” value was 1,810. For the same compound, in [12], the “Amount of Momilactone-A” value is 55.89 ng/spot and the “Amount of Sakuranetin” value turned out to be 122.56 ng/spot. Further, the “Blacinin (Chinese cabbage), produced amount per unit weight” value in assay [13] is given as 18,600. Further, the “Lubimin (Eggplant), produced amount per unit weight” value in assay [14] is reported as 23,070.
